In paper PMC5513037, “Examining the influence of specificity ligands and ATP-competitive ligands on the overall effectiveness of bivalent kinase inhibitors” (Proteome Science, 2017):

Legend:
Test in all cases: KAM-matrix competition in K562 lysate;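 as to 0.001 uM KAM: median log10 fold change of treatment over DMSO control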;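 as to 0.01 uM KAM: median log10 fold change of treatment over DMSO control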;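 as to 0.1 uM KAM: median log10 fold change of treatment over DMSO control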;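 as to 1 uM KAM: median log10 fold change of treatment over DMSO control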;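 as to 10 uM KAM: median log10 fold change of treatment over DMSO control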
Assay type in all cases: binding
ADCK1 = biological target: T1, ADCK1 (Homo sapiens, UniProt Q86TW2);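 as to 0.001 uM KAM: median log10 fold change of treatment over DMSO control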;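 as to 0.01 uM KAM: median log10 fold change of treatment over DMSO control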;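 as to 0.1 uM KAM: median log10 fold change of treatment over DMSO control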;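 as to 1 uM KAM: median log10 fold change of treatment over DMSO control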;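 as to 10 uM KAM: median log10 fold change of treatment over DMSO control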
T1 construct: endogenous in cells; host or cells: K562
T1 sequence (Q86TW2 1-530): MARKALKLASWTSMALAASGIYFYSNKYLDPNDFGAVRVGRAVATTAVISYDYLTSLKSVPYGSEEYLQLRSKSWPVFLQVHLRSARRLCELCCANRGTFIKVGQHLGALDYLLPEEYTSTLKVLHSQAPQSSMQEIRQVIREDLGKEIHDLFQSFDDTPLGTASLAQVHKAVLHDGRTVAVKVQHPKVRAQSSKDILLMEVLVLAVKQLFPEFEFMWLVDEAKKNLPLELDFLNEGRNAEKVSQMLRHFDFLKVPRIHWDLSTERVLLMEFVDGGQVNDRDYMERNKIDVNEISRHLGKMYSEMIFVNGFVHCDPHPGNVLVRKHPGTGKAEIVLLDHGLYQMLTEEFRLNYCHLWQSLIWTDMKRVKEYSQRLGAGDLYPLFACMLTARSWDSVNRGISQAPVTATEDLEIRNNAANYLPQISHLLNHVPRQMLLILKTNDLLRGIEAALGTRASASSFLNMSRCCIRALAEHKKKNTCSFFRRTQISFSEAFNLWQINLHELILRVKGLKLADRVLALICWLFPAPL
Experimental: (§1) Supplement 12953_2017_125_MOESM1_ESM.zip/MS_Supp Info.xlsx, sheet "KAM" | column: 10 uM KAM; 1 uM KAM; 0.1 uM KAM; 0.01 uM KAM; 0.001 uM KAM; RB50

MAP2K1 = biological target: T2, MAP2K1 (Homo sapiens, UniProt Q02750)
T2 construct: endogenous in cells; host or cells: K562
Experimental: as §1

MAP3K1 = biological target: T3, MAP3K1 (Homo sapiens, UniProt Q13233)
T3 construct: endogenous in cells; host or cells: K562 cell lysate
Experimental: as §1

NEK8 = biological target: T4, NEK8 (Homo sapiens, UniProt Q86SG6)
T4 construct: endogenous in cells; host or cells: K562
T4 sequence (Q86SG6 1-692): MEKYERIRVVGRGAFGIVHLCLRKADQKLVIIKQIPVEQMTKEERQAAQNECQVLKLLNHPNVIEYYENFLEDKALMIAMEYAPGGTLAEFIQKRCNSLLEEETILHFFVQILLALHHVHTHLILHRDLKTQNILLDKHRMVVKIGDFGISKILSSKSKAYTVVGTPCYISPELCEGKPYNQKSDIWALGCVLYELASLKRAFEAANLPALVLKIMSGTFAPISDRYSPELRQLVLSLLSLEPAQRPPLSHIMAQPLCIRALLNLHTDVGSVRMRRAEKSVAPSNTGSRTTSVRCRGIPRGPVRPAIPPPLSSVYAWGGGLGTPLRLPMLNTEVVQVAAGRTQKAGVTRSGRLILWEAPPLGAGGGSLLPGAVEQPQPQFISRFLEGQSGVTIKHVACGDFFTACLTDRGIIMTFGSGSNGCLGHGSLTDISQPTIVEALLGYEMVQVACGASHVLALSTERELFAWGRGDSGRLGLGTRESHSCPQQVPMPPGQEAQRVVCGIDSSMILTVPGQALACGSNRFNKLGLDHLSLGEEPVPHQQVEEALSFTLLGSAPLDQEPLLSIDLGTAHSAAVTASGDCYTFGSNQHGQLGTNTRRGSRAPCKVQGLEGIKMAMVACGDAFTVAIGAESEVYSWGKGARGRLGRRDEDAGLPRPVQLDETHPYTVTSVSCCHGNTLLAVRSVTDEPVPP
Experimental: as §1

PIK3R4 = biological target: T5, PIK3R4 (Homo sapiens, UniProt Q99570);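 as to 0.001 uM KAM: median log10 fold change of treatment over DMSO control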;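 as to 0.01 uM KAM: median log10 fold change of treatment over DMSO control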;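 as to 0.1 uM KAM: median log10 fold change of treatment over DMSO control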;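 as to 1 uM KAM: median log10 fold change of treatment over DMSO control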;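 as to 10 uM KAM: median log10 fold change of treatment over DMSO control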
T5 construct: endogenous in cells; host or cells: K562
Experimental: as §1

STK4 = biological target: T6, STK4 (Homo sapiens, UniProt Q13043)
T6 construct: endogenous in cells; host or cells: K562
T6 sequence (Q13043 1-487): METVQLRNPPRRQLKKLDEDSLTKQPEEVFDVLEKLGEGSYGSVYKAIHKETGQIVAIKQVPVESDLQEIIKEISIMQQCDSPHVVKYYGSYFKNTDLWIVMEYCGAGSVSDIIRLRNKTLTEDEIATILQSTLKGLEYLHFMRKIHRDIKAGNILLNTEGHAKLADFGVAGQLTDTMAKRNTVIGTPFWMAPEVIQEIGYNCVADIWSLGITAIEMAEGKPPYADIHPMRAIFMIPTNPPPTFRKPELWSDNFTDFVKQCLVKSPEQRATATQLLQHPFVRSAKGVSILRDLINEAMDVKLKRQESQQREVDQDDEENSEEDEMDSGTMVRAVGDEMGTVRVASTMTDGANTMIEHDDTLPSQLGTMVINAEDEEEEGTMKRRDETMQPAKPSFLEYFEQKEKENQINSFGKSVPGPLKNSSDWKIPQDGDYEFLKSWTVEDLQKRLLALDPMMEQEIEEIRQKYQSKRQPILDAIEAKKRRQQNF
Experimental: as §1

[1] = KAM 0.001-10 uM, read-out: RB50 (the source's name)
[2] = read-out: RB50 (the source's name)

T2 sequence (Q02750 whole entry): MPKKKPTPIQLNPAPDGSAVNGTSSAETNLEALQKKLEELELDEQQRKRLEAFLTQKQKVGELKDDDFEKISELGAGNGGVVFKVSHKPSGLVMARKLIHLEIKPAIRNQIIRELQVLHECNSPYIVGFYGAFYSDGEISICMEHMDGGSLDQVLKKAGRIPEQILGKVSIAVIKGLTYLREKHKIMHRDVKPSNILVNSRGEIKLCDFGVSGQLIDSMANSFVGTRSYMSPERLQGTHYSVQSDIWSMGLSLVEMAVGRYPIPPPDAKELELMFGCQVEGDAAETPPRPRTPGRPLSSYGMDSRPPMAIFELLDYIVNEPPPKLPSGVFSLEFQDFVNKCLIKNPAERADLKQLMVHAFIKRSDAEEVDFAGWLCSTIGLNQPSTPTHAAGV
T3 sequence (Q13233 whole entry): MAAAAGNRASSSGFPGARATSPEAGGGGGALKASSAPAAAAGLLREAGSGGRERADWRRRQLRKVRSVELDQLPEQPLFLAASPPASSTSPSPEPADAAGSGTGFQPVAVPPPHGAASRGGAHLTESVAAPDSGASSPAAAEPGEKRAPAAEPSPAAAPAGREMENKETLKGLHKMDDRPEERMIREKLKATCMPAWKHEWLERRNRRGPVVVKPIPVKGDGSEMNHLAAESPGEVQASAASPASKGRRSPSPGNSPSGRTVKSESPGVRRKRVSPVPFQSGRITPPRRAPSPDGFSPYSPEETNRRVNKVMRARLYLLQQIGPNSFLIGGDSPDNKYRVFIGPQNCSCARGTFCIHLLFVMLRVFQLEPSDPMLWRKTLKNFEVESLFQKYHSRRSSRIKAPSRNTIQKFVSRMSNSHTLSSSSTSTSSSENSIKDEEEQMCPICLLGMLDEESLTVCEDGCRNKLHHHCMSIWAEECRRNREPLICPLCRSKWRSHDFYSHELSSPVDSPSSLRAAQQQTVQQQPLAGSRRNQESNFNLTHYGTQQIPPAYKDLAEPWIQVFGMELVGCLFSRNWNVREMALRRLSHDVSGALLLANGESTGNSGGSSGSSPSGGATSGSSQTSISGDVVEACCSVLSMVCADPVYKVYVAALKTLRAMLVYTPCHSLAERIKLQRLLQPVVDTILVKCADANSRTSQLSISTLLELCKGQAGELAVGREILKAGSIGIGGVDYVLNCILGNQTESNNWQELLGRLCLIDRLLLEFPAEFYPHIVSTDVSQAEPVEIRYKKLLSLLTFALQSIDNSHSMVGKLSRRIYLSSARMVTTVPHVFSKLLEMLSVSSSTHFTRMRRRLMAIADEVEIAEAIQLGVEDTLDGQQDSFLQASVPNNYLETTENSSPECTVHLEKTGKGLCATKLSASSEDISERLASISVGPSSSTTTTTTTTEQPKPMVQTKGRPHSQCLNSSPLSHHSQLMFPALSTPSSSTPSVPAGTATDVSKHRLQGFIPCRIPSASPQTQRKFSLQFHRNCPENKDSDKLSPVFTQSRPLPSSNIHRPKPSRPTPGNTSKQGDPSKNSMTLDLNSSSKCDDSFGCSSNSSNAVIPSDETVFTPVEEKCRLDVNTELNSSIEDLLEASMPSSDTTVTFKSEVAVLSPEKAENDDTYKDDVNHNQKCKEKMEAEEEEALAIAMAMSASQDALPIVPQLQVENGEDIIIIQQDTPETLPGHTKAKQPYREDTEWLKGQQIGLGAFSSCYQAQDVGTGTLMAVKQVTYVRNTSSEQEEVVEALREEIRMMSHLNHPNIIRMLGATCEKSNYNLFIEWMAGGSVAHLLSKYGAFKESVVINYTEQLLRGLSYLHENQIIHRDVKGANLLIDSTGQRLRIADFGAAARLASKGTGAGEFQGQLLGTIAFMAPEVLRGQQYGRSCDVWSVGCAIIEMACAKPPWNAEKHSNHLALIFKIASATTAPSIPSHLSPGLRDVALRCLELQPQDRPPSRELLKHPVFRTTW
T5 sequence (Q99570 2-1358 limits assumed): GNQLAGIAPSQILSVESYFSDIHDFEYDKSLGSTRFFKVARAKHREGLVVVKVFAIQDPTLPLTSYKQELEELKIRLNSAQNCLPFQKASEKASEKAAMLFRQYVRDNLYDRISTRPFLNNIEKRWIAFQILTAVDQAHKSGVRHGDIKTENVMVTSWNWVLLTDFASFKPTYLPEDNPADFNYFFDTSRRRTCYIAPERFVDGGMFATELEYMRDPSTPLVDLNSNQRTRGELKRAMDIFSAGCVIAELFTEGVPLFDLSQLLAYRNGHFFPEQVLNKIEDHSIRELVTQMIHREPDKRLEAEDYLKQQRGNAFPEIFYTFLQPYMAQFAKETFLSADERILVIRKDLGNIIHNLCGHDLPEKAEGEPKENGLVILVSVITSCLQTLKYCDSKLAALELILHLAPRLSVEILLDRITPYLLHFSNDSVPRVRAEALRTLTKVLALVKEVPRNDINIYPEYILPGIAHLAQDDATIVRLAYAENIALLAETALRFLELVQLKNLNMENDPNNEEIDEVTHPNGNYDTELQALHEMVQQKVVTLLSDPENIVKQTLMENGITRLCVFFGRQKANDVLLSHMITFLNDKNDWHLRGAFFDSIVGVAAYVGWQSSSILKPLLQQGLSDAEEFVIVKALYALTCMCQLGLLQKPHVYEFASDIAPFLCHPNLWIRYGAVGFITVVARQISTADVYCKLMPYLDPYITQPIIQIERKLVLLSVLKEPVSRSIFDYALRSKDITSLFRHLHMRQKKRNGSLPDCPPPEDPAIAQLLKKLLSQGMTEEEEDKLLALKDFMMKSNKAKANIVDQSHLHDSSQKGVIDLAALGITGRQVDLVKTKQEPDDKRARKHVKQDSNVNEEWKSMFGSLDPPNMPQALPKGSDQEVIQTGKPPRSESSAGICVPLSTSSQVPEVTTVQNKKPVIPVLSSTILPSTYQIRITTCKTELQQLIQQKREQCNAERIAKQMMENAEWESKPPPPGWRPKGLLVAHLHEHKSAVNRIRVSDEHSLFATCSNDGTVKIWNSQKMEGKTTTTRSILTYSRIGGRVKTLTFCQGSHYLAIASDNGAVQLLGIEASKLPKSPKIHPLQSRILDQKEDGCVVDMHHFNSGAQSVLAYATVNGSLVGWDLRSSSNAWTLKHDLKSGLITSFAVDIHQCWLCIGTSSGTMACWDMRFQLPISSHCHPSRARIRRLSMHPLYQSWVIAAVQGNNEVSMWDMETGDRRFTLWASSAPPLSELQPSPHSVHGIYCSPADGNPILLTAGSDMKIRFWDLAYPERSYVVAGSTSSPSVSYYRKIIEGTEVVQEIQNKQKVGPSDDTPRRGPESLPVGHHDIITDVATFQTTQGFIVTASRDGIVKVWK
T5 sequence (Q8NEB9 whole entry partner): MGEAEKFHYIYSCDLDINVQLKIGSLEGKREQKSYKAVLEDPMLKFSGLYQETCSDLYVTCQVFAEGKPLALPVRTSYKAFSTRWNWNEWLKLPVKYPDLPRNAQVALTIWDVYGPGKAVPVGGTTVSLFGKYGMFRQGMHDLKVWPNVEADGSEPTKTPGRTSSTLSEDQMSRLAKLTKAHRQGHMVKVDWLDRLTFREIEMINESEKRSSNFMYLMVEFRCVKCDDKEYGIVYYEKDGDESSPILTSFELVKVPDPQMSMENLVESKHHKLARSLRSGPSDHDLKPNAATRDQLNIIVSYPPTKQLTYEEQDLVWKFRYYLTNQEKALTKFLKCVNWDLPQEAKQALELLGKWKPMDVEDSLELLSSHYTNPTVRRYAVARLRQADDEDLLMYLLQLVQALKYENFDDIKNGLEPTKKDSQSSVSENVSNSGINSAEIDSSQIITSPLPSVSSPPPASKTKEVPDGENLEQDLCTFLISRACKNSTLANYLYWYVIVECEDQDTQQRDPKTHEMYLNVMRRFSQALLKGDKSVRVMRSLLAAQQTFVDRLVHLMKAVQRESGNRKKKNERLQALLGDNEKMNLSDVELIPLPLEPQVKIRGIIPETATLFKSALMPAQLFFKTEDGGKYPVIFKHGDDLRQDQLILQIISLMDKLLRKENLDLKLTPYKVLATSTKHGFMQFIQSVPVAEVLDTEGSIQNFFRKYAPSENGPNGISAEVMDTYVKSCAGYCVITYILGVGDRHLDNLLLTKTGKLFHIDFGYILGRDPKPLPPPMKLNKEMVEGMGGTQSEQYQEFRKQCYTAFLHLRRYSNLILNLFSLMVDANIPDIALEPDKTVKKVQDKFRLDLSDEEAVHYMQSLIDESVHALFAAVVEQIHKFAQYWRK

In the case of `N#CCc1ccc(Nc2nc(NCCCN)cc(Nc3cc(C4CC4)[nH]n3)n2)cc1` [KAM], the IC50 (ADCK1; [1]) is reported as greater than 10000 nM, the “0.001 uM KAM” value (ADCK1; relative to 0 uM KAM = 0) is reported as -0.001358 and the “0.01 uM KAM” value (ADCK1; relative to 0 uM KAM = 0) is reported as -0.0336. The “0.1 uM KAM” value (ADCK1; relative to 0 uM KAM = 0) was -0.06203, the “1 uM KAM” value (ADCK1; relative to 0 uM KAM = 0) was -0.1949 and the “10 uM KAM” value (ADCK1; relative to 0 uM KAM = 0) was -0.2595. The “median Log10 fold change” value (MAP2K1; 0.001 uM KAM) was -0.01014, the “median Log10 fold change” value (MAP2K1; 0.01 uM KAM) was -0.05282 and the “median Log10 fold change” value (MAP2K1; 0.1 uM KAM) was -0.2542. The “median Log10 fold change” value (MAP2K1; 1 uM KAM) was -0.5685, the “median Log10 fold change” value (MAP2K1; 10 uM KAM) was -0.7087 and the IC50 (MAP2K1; [2]) was 164 nM. The “median Log10 fold change” value (MAP3K1; 0.001 uM KAM) was -0.0387, the “median Log10 fold change” value (MAP3K1; 0.01 uM KAM) was -0.001908 and the “median Log10 fold change” value (MAP3K1; 0.1 uM KAM) was -0.0773. For the same compound, the “median Log10 fold change” value (MAP3K1; 1 uM KAM) was -0.1722, the “median Log10 fold change” value (MAP3K1; 10 uM KAM) was -0.3697 and the IC50 (MAP3K1; [2]) was 4530 nM. The “median Log10 fold change” value (NEK8; 0.001 uM KAM) was -0.1269, the “median Log10 fold change” value (NEK8; 0.01 uM KAM) was -0.1123 and the “median Log10 fold change” value (NEK8; 0.1 uM KAM) was -0.2566. For the same compound, the “median Log10 fold change” value (NEK8; 1 uM KAM) was -0.2815, the “median Log10 fold change” value (NEK8; 10 uM KAM) was -0.455 and the IC50 (NEK8; [2]) was 861 nM. For the same compound, the IC50 (PIK3R4; [1]) was greater than 10000 nM, the “0.001 uM KAM” value (PIK3R4; relative to 0 uM KAM = 0) was -0.04609 and the “0.01 uM KAM” value (PIK3R4; relative to 0 uM KAM = 0) was 0.02295. For the same compound, the “0.1 uM KAM” value (PIK3R4; relative to 0 uM KAM = 0) was -0.02338, the “1 uM KAM” value (PIK3R4; relative to 0 uM KAM = 0) was -0.03171 and the “10 uM KAM” value (PIK3R4; relative to 0 uM KAM = 0) was -0.01923. The “median Log10 fold change” value (STK4; 0.001 uM KAM) was -0.002208, the “median Log10 fold change” value (STK4; 0.01 uM KAM) was -0.01313 and the “median Log10 fold change” value (STK4; 0.1 uM KAM) was -0.2747. For the same compound, the “median Log10 fold change” value (STK4; 1 uM KAM) was -0.6557, the “median Log10 fold change” value (STK4; 10 uM KAM) was -0.6912 and the IC50 (STK4; [2]) was 146 nM.
